{"source": "patent US20040253319A1", "about": "“Pharmaceutical compositions and method for alleviating side-effects of estrogen replacement therapy” (priority 2003, published 2004)", "assay_type_in_all_cases": "cell-based", "key": {"[1]": {"system": "human smooth muscle cells", "assay": "[3H]thymidine incorporation growth rate assay in human smooth muscle cells", "details": "estrogen 50-450 nM; FIG. 1", "procedure": "Rationale: As described, the excessive growth rate of smooth muscle cells and cancer cells is directly related to accelerated atherosclerotic process and malignant tumor growth, respectively. Cultured cell growth rate is estimated according to de novo DNA synthesis assessed (i.e., [^3H]Thymidine Incorporation) according to the amount of Tritium-labeled metabolic precursor incorporated into cellular DNA during incubation period.\nHuman smooth muscle cells (Aortic-Cambrex Corporation, San Diego, Calif., Cat. No. CC-2571) were seeded at a cell concentration of 40,000 cells/ml (0.5 mL) per well in 24-well plates containing an appropriate growth medium (DMEM plus 10% FBS). After three hours incubation, cells were washed and fresh culture media containing tested compositions at indicated amounts were added Cells were allowed to culture for an additional 3-4 days. At the end of the culture, an aliquot of [^3H]thymidine (DuPont-NEN, Boston, Mass.) was added at a final concentration of 1 microCi/mL ([…]). After 24 hours, cells were washed in ice-cold Dulbecco's PBS, fixed in cold 10% TCA (trichloroacetic acid) for at least 0.5 hour, and incubated with 0.5 mL 0.1N sodium hydroxide for 2 hours at 37° C. Cell bound [^3H]thymidine was extracted in 0.1 N NaOH and measured in a liquid scintillation counter (LS 8000, Beckman Coulter). […]"}, "[2]": {"system": "human smooth muscle cells", "assay": "Smooth muscle cell invasion assay (Matrigel)", "details": "estrogen 100 nM; FIG. 2", "procedure": "Elevated capacity of smooth muscle cells and cancer cells to invade extracellular matrix is directly related to the initiation of the atherosclerotic plaque formation and to metastasis formation, respectively. Cultured cell invasiveness is estimated according to the number of cells penetrating through a porous plastic membrane covered with natural extracellular matrix ([…], Beckton-Dickinson). Cultured cells were grown in 75 cm^2 flasks in culture medium containing 10% fetal bovine serum (FBS) to near complete confluency of 37° C. For the last 48 hours of incubation de novo synthesized cellular DNA was metabolically labelled by adding 1 microCi/mL [^3H]thymidine. Labelled cells were detached from plastic surface by treating cell layer with 0.025% trypsin in PBS. Cultured cells were seeded on the top surface of the bottom plastic membrane of the inserts placed in the wells of a 24 well plastic plate in 0.5 mL of culture medium containing 10% fetal bovine serum (FBS) at concentration 40,000 cell/mL. Insert bottom membrane has controlled size pores of 8 micron in diameter and is covered with the layer of Matrigel. […] Number of cells penetrated to the other side of the porous membrane was assessed according to amount of lower membrane surface-bound radioactivity as measured with scintillation counter (LS 8000, Beckman-Coulter)."}, "[3]": {"system": "interleukin-6 release in human smooth muscle cells", "assay": "Interleukin-6 release in human smooth muscle cells", "details": "estrogen 100 nM; FIG. 3", "source_text": "Rationale: Cytokine expression and its involvement in inflammatory responses are known. It has been recently accepted that vascular and smooth muscle pathology manifested in cardiovascular diseases is one of the inflammatory responses during atherosclerosis and hypertension. Interleukin-6 is one of the key cytokines which trigger the inflammation process. Over-expression of interleukin-6 in smooth muscle cells under pathological stimuli may further amplify the inflammatory lesions. The present compositions are designed to inhibit over-expression of cytokine production in smooth muscle cells (in particular, the interleukin-6). By inhibiting the expression of interleukin-6 in smooth muscle cells, the present compositions are believed to be a remedy alleviating the side-effects of estrogen replacement therapy in post-menopausal women.\n(§1) The level of cellular vascular endothelium growth factor (VEGF) production is an indicator of a stimulation of neo-vascularization processes. A rate of cytokine synthesis and secretion into medium by culture cells was measured with a commercially available immunochemical assay kit. Cultured cells were seeded in 48 well plates in 0.5 mL of medium containing 10% FBS at concentration 40,000 cell/mL. […] The level of cytokines secreted into cell culture medium was measured using ELISA kits according to manufacturer's protocol (R&D Systems)."}, "[4]": {"system": "human breast cancer cells (MCF-7 cells)", "assay": "[3H]thymidine incorporation in human breast cancer cells (MCF-7)", "details": "estrogen 20-500 nM; FIG. 4"}, "[5]": {"system": "VEGF release in human breast cancer cells (MCF-7 cells)", "assay": "VEGF release in human breast cancer cells (cytokine expression assay, ELISA)", "details": "estrogen 10-100 nM; FIG. 6", "source_text": "Measurement of VEGF (Vascular Endothelial Growth Factor) in Cancer Cells Rationale: New vascularization formation (i.e., neo-vascularization) within a tumor bed is essential to the tumor growth. Without the new blood vessel formulation, most tumors can only grow to approximately 1 mm in diameter because the supply of nutrient and oxygen to the growing tumor cells depends on the blood vessels around the tumor. A tumor has the ability to attract new blood vessel formation (neo-vascularization) by releasing a protein known as vascular endothelial growth factor (VEGF). It is desirable to inhibit the VEGF expression in cancer cells so as to prevent neo-vascularization and inhibit tumor growth. (See, Vascular Endothelial Cell Growth Factor (VEGF), an Emerging Target for Cancer Chemotherapy, Shinkaruk, et al., Current Medicinal Chemistry and Anti-Cancer Agents, 2003, Vol. 3, pages 95-117).\nas §1, with “kit.” for “kit. Cultured cells were seeded in 48 well plates in 0.5 mL of medium containing 10% FBS at concentration 40,000 cell/mL.”"}}, "data": [{"substance": "estrogen", "values": [{"measurement": "[3H]thymidine incorporation in human smooth muscle cells", "setting": "[1]", "result": "induce an increase"}, {"measurement": "human smooth muscle cell invasion", "setting": "[2]", "result": "induce an increase"}, {"measurement": "interleukin-6 release in human smooth muscle cells", "setting": "[3]", "result": "induce an increased"}, {"measurement": "[3H]thymidine incorporation in human breast cancer cells (MCF-7)", "setting": "[4]", "result": "induce an increase"}, {"measurement": "VEGF release in human breast cancer cells (MCF-7)", "setting": "[5]", "result": "induce an increased"}]}]}
